Experiment [1] has as its system washed human platelets. Description: Collagen-induced platelet aggregation (Examples 9, 10). Type of experiment: cell-based. To be noted: 5 μg/ml collagen; various concentrations; FIG. 10. The method, then:
Washed human platelets were suspended in HEPES-buffered saline, containing 5 mM glucose and 350 μg/ml BSA. 0.5 ml aliquots of platelets were aggregated by stirring with 5 μg/ml collagen in the presence of 500 μg/ml of various peptides. Aggregation was measured at 37° C. as decrease in optical absorbance vs. time in a Chrono-log aggregometer and is shown in FIG. 9. 100% aggregation was defined as the maximal decrease in absorbance measured in the absence of peptide. % of control was calculated as the decrease in absorbance measured in the presence of peptide divided by the decrease in absorbance measured in the absence of peptide times 100. Peptides are designated under each bar graph by their amino acid sequence represented using the one letter amino acid code.
Washed human platelets were suspended in HEPES-buffered saline, containing S mM glucose and 350 μg/ml BSA. […] Aggregation was measured at 37° C. as decrease in optical absorbance vs. time in a chrono-log aggregometer and is shown in FIG. 10. 100%; aggregation was defined as the maximal decrease in absorbance measured in the absence of peptide. % of control was calculated as the decrease in absorbance measured in the presence of peptide divided by the decrease in absorbance measured in the absence of peptide times 100.

Experiment [2] relates to human MDA-MB-231 breast carcinoma cells. The experiment in a line: Athymic model of human tumor progression, peptide experiments (Example 24). Type of experiment: in vivo, athymic mice. As to the method: To further evaluate the anti-metastatic properties of the Cys-Ser-Val-Thr-Cys-Gly (SEQ ID NO: 1) peptide, we measured the effect of peptide and antibody against the Cys-Ser-Val-Thr-Cys-Gly (SEQ ID NO: 1) receptor in an athymic model of human tumor progression. In this model, human MDA-MB-231 breast carcinoma cells were injected intraperitoneally in athymic mice. Animals were then treated with either peptide or receptor IgG for three weeks after which the extent of lung and liver metastasis is determined.
For the peptide experiments, eighteen mice were inoculated with MDA-MB-231 human breast cancer cells. After 72 hours, mice were randomized to treatment with every-other-day intraperitoneal injections of saline, scrambled peptide, or a Cys-Ser-Val-Thr-Cys-Gly (SEQ ID NO: 1) peptide for 20 days. One mouse treated with the Cys-Ser-Val-Thr-Cys-Gly (SEQ ID NO: 1) peptide expired after traumatic injection. Mice were sacrificed at 21 days. The peritoneal cavity was examined grossly for primary tumor implantation. The liver and lungs were examined histologically for micrometastases. Statistical analysis was performed by Chi-square analysis.

Experiment [3] has as its system rat aorta. The experiment in a line: Angiogenesis in serum-free collagen gel culture of rat aorta (Example 28). Type of experiment: cell-based. To be noted: compared to untreated control or scrambled peptide control; FIG. 17. An excerpt:
Error bars=SEM. Photo-micrograph (4× magnification) of a representative aortic ring culture treated either with Cys-Ser-Val-Thr-Cys-Gly (SEQ ID NO: 1) or Val-Cys-Thr-Gly-Ser-Cys (SEQ ID NO: 7) (FIG. 17B). The Cys-Ser-Val-Thr-Cys-Gly (SEQ ID NO: 1)-treated culture has fewer capillary outgrowths than the Val-Cys-Thr-Gly-Ser-Cys (SEQ ID NO: 7) scrambled peptide control.

Experiment [4] deals with mouse B16-F10 melanoma cells. Description: Melanoma lung metastasis, one bolus i.v. or i.p. (Example 22). Type of experiment: in vivo. To be noted: mouse, in vivo. As to the method: One bolus injection of Cys-(Acm)-Ser-Val-Thr-Cys-(Acm)-Gly (SEQ ID NO: 6) peptide (1 mg/mouse intravenously or 5 mg/mouse intraperitoneally ) was administered followed by intravenous injection of mouse B16-F10 melanoma cells (100,000). Each treatment group consisted of 5 animals. After 10 days animals were sacrificed and lung tumors counted. […] Error bars represent the standard error of the mean. P values between control and peptide-treated groups <0.001.

Experiment [5] has as its system MMP-9 production in BAE cells. Description: TSP-1-stimulated endothelial MMP-9 production (Example 27). Type of experiment: cell-based. As to the method: BAE cells were treated with TSP-1 as described in Example 27. MMP-9 levels were quantitated from densitometry of the zymograms prepared from the BAE cell conditioned media. The control was 15 μg/ml TSP-1. All other treatments were performed in the presence of 15 μg/ml TSP-1.

The test system of experiment [6] is mouse B16-F10 melanoma cells. The experiment in a line: Direct adhesion to dried peptide (Example 31). Type of experiment: cell-based. The following applies: 10 μg of each peptide; one hour; FIG. 20. As to the method:
Peptide effect on direct adhesion was tested by drying 10 μg of each peptide on the bottom of a 96well microtiter plate. Plates were blocked with BSA. Mouse B16-F10 melanoma cells (50,000) were plated in each well and allowed to attach for one hour. Non-adherent cells were aspirated out, plates rinsed, and adherent cells were fixed, stained, and counted. The error bars represent the standard deviation.

Experiment [7] deals with mouse B16-F10 melanoma cells. Description: Melanoma tumor cell metastasis, peptide i.v. (Example 21). Type of experiment: in vivo, mice. To be noted: 1 mg peptide i.v. shortly before or after tumor implantation; two weeks; FIG. 12. An excerpt: Mice were sacrificed two weeks later and lung tumors counted. Treatment groups consisted of five animals. The photograph of FIG. 12 depicts three lungs from each treatment group. The black spots are melanoma tumors. All metastasis experiments were repeated 2-3 times showing qualitatively similar results depicted in the bar graph of FIG. 12.

[8] abbreviates: i.p. every other day for 20 days, sacrificed at 21 days.

Marks after values point to notes of the source that are not given here. Where no end group is shown, it is not given here.

Turning to “CSVTCG (cysteine pairing not given here)”, the “collagen-induced platelet aggregation, dose response” value in experiment [1] is recorded as “inhibit collagen-induced platelet aggregation”. Also, in experiment [2] (compared with saline or scrambled peptide groups), the “in vivo breast cancer progression; metastases in the two organs examined” value is given as “significantly decreased metastases”. Further, the intraperitoneal tumors entry in experiment [2] (gross examination at 21 days) was “fewer and smaller intraperitoneal tumors”. In addition, in experiment [2] (setting [8]), the “Liver: no. of animals with metastases/total no. of animals” value is reported as 1/5* and the “Lungs: no. of animals with metastases/total no. of animals” value is 0/5. Further, the “angiogenesis (capillary outgrowths)” value in experiment [3] is “inhibited angiogenesis”. For the same substance, the “blocking activity in metastasis and the other assays, peptide versus blocked analogue” value in experiment [4] is listed as “identical blocking activity”. Besides, in experiment [5] (0.20 mM, with 15 μg/ml TSP-1), the “% inhibition (MMP-9)” value worked out at 86% and the “Relative MMP-9 Levels” value worked out at 0.14. In addition, the “inhibited MMP-9 production” value in experiment [5] (at high doses) amounted to 86%. In addition, in experiment [6], the “adhesion of cells to dried peptide” value was “half as well as fibronectin and TSP-1”. Further, the “melanoma cell metastasis (lung tumors)” value in experiment [7] is on record as “significantly blocked”.

The record behind these values is patent US6339062B1, “Retroinverso polypeptides that mimic or inhibit thrombospondin activity” (Inkine Pharmaceutical Company, Inc., priority 1998, dated 2002).
